Reference: the OPERA property sets (Mansouri et al. 2018)
Converted amounts (≈) assume the structure as drawn.

conditions: not given

| SMILES | solubility [mM] |
| --- | --- |
| CNC(=O)Oc1cccc(N=CN(C)C)c1 | 4.52 (≈ 1000 µg/mL) |
| CCCCOc1ccc(C(=O)OCCN(CC)CC)cc1 | 0.13 (≈ 38.1 µg/mL) |
| CC(C)OC(=O)COc1ccc(Cl)cc1Cl | 0.142 (≈ 37.3 µg/mL) |
| CC=CCCl | 11 (≈ 1000 µg/mL) |
| O=C(O)c1c(Cl)cccc1Cl | 74 (≈ 14100 µg/mL) |
| Cc1cccc(Br)c1 | 0.3 (≈ 51.3 µg/mL) |
| Cc1cc(C)c(C(=O)O)c(C)c1 | 4.4 (≈ 722 µg/mL) |
| COc1cc(NS(=O)(=O)c2ccc(N)cc2)nc(OC)n1 | 1.11 (≈ 343 µg/mL) |
| Nc1ccc(-c2ccc(Cl)cc2)cc1 | 0.023 (≈ 4.68 µg/mL) |
| Cc1cccc(Cl)c1 | 0.3 (≈ 38 µg/mL) |
| Cc1cc(NS(=O)(=O)c2ccc(N)cc2)nc(C)n1 | 5.79 (≈ 1610 µg/mL) |

same assay, conditions: 20 °C

| SMILES | solubility [mM] |
| --- | --- |
| CC1CCCC(=O)C1 (stereo not given) | 13.4 (≈ 1500 µg/mL) |
| CON(C)C(=O)Nc1ccc(Br)c(Cl)c1 | 0.119 (≈ 35 µg/mL) |
| Clc1cccc(-c2c(Cl)cccc2Cl)c1 | 0.00015 (≈ 0.0386 µg/mL) |
| O=Cc1ccc2c(c1)OCO2 | 23.3 (≈ 3500 µg/mL) |
| c1ccc(C(c2ccccc2)(c2ccccc2)N2CCOCC2)cc1 | 6.07e-05 (≈ 0.02 µg/mL) |
| Clc1cc(Cl)c(-c2cccc(Cl)c2Cl)cc1Cl | 8.7e-05 (≈ 0.0284 µg/mL) |
| Clc1ccc(-c2ccc(Cl)c(Cl)c2)cc1 | 0.000279 (≈ 0.0719 µg/mL) |
| Oc1ccc2c(c1)CCCC2 | 10.1 (≈ 1500 µg/mL) |
| Cc1nc(NS(=O)(=O)c2ccc(N)cc2)oc1C | 6.27 (≈ 1680 µg/mL) |
| O=C(O)CCc1ccccc1 | 39.3 (≈ 5900 µg/mL) |
| C[C@H](CCC(=O)NCC(=O)O)[C@H]1CC[C@H]2[C@@H]3[C@H](O)C[C@@H]4C[C@H](O)CC[C@]4(C)[C@H]3C[C@H](O)[C@]12C | 0.00709 (≈ 3.3 µg/mL) |
| Oc1cccc2cccnc12 | 3.83 (≈ 556 µg/mL) |
| O=C(O)c1nc[nH]c1C(=O)O | 3.2 (≈ 500 µg/mL) |
| CC(C)(S)[C@@H](N)C(=O)O | 744 (≈ 111000 µg/mL) |
| Clc1ccc(-c2ccccc2Cl)cc1Cl | 0.000516 (≈ 0.133 µg/mL) |
| O=C(O)c1ccccc1C(c1ccc(O)cc1)c1ccc(O)cc1 | 0.546 (≈ 175 µg/mL) |
| CCCCC(C)(C)CCC | 0.0155 (≈ 2.2 µg/mL) |
| Clc1cc(Cl)c(-c2c(Cl)cc(Cl)c(Cl)c2Cl)cc1Cl | 1.24e-05 (≈ 0.0049 µg/mL) |

| SMILES | solubility [mM] |
| --- | --- |
| CCCI | 6.3 (≈ 1070 µg/mL) |
| CC(Cl)C(C)Cl (stereo not given) | 4.42 (≈ 562 µg/mL) |
| N[C@@H](Cc1ccc(O)c(O)c1)C(=O)O | 25.4 (≈ 5000 µg/mL) |
| COC(=O)c1ccc(OC)cc1 | 3.87 (≈ 643 µg/mL) |
| OCCCBr | 1020 (≈ 142000 µg/mL) |
| CSc1nc(N=[N+]=[N-])nc(NC(C)C)n1 | 0.244 (≈ 55 µg/mL) |
| CCC(Cl)[N+](=O)[O-] (stereo not given) | 64.8 (≈ 8000 µg/mL) |
| CNc1ccccc1C(=O)O | 1.32 (≈ 200 µg/mL) |
| Clc1ccc(-c2cc(Cl)c(Cl)cc2Cl)cc1Cl | 4.1e-05 (≈ 0.0134 µg/mL) |
| C=CCOC(=O)c1ccccc1C(=O)OCC=C | 0.739 (≈ 182 µg/mL) |
| CCCCI | 1.1 (≈ 202 µg/mL) |
| Oc1cccc2ncccc12 | 2.87 (≈ 417 µg/mL) |
| COP(=S)(OC)SCc1nc(N)nc(N)n1 | 0.853 (≈ 240 µg/mL) |
| COC(=O)C(Cl)Cc1ccc(Cl)cc1 (stereo not given) | 0.172 (≈ 40 µg/mL) |
| CCOP(=S)(OCC)Oc1cc(C)nc(N(CC)CC)n1 | 0.0119 (≈ 3.97 µg/mL) |
| O=C(O)Cn1c(=O)sc2cccc(Cl)c21 | 2.46 (≈ 600 µg/mL) |
| Clc1ccc(Cl)c(-c2cccc(Cl)c2Cl)c1 | 0.000342 (≈ 0.1 µg/mL) |

same assay, conditions: 21 °C

| SMILES | solubility [mM] |
| --- | --- |
| Brc1cccc2ccccc12 | 0.045 (≈ 9.32 µg/mL) |
| CC12CCC(CC1)C(C)(C)O2 | 17.2 (≈ 2650 µg/mL) |

same assay, conditions: 22 °C

| SMILES | solubility [mM] |
| --- | --- |
| CN(C)C(=O)N(C(=O)c1ccccc1)c1ccc(Cl)c(Cl)c1 | 0.0474 (≈ 16 µg/mL) |
| Cc1cc(S(=O)(=O)c2ccccc2)ccc1NS(=O)(=O)C(F)(F)F | 0.158 (≈ 60 µg/mL) |
| CCOP(=S)(OCC)N1C(=O)c2ccccc2C1=O | 0.444 (≈ 133 µg/mL) |
| O=C1NC(=O)C(c2ccccc2)(c2ccccc2)N1 | 0.127 (≈ 32 µg/mL) |
| OCc1ccccc1O | 507 (≈ 63000 µg/mL) |
| Cc1cc(=O)[nH]c(=O)[nH]1 | 55.5 (≈ 7000 µg/mL) |

same assay, conditions: 23 °C

| SMILES | solubility [mM] |
| --- | --- |
| C[C@]12CC[C@@H](O)C[C@@H]1CC[C@@H]1[C@@H]2[C@H](O)C[C@]2(C)C(=O)CC[C@@H]12 | 0.255 (≈ 78.2 µg/mL) |
| O=C(O)[C@@H](CO)c1ccccc1 | 119 (≈ 19800 µg/mL) |
| O=c1[nH]cnc2nc[nH]c12 | 5.14 (≈ 700 µg/mL) |
| NC(=O)CC(N)C(=O)O (stereo not given) | 172 (≈ 22700 µg/mL) |

same assay, conditions: 24 °C

| SMILES | solubility [mM] |
| --- | --- |
| O=NN1CCCCC1 | 670 (≈ 76500 µg/mL) |
| CN(C)CCC=C1c2ccccc2CCc2ccccc21 | 0.035 (≈ 9.71 µg/mL) |
| CC(C)Oc1cc(-n2nc(C(C)(C)C)oc2=O)c(Cl)cc1Cl | 0.00203 (≈ 0.7 µg/mL) |
| CC1CCCCC1C (stereo not given) | 0.0748 (≈ 8.4 µg/mL) |
| CN1CCCC(CN2c3ccccc3Sc3ccccc32)C1 (stereo not given) | 0.018 (≈ 5.59 µg/mL) |

same assay, conditions: 25 °C

| SMILES | solubility [mM] |
| --- | --- |
| Cc1cc(Cl)ccc1OCC(=O)O | 3.14 (≈ 630 µg/mL) |
| CN1CC(O)N(c2nnc(C(C)(C)C)s2)C1=O (stereo not given) | 13.3 (≈ 3400 µg/mL) |
| Fc1cc(F)c(F)c(F)c1 | 4.95 (≈ 742 µg/mL) |
| Cc1ccc2ccccc2c1 | 0.173 (≈ 24.6 µg/mL) |
| CCCCc1c(C)nc(N(C)C)nc1O | 5.73 (≈ 1200 µg/mL) |
| CCC(O)C(C)(C)C (stereo not given) | 70.6 (≈ 8200 µg/mL) |
| C#CCCCCCC#C | 1.04 (≈ 125 µg/mL) |
| COC(=O)C(=O)OC | 511 (≈ 60300 µg/mL) |
| COc1ccc2c(c1)c(CC(=O)O)c(C)n2C(=O)/C=C/c1ccccc1 | 0.00286 (≈ 1 µg/mL) |
| CC(=O)CC(C)C | 190 (≈ 19000 µg/mL) |
| CC(C)(C)CO | 397 (≈ 35000 µg/mL) |
| CN1C(=O)C(C)(C2=CCCCC2)C(=O)N=C1O (stereo not given) | 1.84 (≈ 435 µg/mL) |
| C#CC(C)(C)NC(=O)c1cc(Cl)cc(Cl)c1 | 0.0586 (≈ 15 µg/mL) |
| CCC1(C2=C[C@H]3CC[C@@H](C2)C3)C(=O)NC(=O)NC1=O | 1.7 (≈ 446 µg/mL) |
| CCC1NC(=O)c2cc(S(N)(=O)=O)c(Cl)cc2N1 (stereo not given) | 0.518 (≈ 150 µg/mL) |
| C[C@]12CCc3c(ccc4cc(O)ccc34)[C@@H]1CCC2=O | 0.00571 (≈ 1.52 µg/mL) |
| ClCBr | 129 (≈ 16700 µg/mL) |
